The source of these data is article PMC4086519, “Anti-Trichophyton Activity of Protocatechuates and Their Synergism with Fluconazole” (Evidence-based Complementary and Alternative Medicine : eCAM, 2014).

In general, MIC refers to the smallest concentration in the dilution series that meets the test's criterion for growth inhibition. A high value points to a less susceptible organism. One may read the MFC as the lowest tested concentration that kills the fungus rather than only halting it.

Series [1] has as its system Trichophyton mentagrophytes. Put plainly: Checkerboard synergism assay with fluconazole. Format: cell-based. As to conditions: for MIC, substances alone: checkerboard, 168 hours. Here is the method:
(§1) The drug activity was assessed using a checkerboard method derived from a standardised procedure established by the National Committee for Clinical Laboratory Standards ([…]-A2). Briefly, the test was performed on the same medium used for susceptibility testing. Volumes of 50 μL of each drug in a concentration four times the final concentration were dispensed in 96-well plates ([…], Switzerland). To each well, 100 μL of the fungal suspension was added to produce a final concentration of 5.0 × 10^3 CFU/mL. As a negative control, we used 200 μL of RPMI, while as a positive control, we used 100 μL of RPMI medium with 100 μL of inoculum. The plates were incubated at 35°C, and the reading was completed after 168 hours. We conducted visual and spectrophotometric readings at 490 nm. To determine the effect of combinatorial fractions, we calculated the fractional inhibitory concentration (FIC). The FIC was calculated by taking the MIC of the substance in combination/MIC of the substance alone. The sum of the fractional inhibitory concentration (FIC) of each substance consists of the fractional inhibitory concentration index: (the MIC of drug A in combination/the MIC of drug A alone) + (the MIC of drug B in combination/the MIC of drug B alone).

Series [2] concerns Trichophyton rubrum. Put plainly: Checkerboard synergism assay with fluconazole. In kind it is cell-based. Here is the method:
as §1

Series [3] deals with NOK (oral human keratinocyte) cell lines. Put plainly: Sulphorhodamine B cytotoxicity assay. Conditions: NOK cells, 24 hours. In kind it is cell-based. Here is the method: The cytotoxicity of sixteen semisynthetic compounds derived from protocatechuic acid was assessed using a sulphorhodamine B assay in NOK (oral human keratinocyte) cell lines obtained from the American Type Culture Collection (Manassas, VA, USA). The strains were maintained in bottles appropriate for cell culture with keratinocyte serum free medium (Gibco, Life Technologies) and incubated in standard conditions of 37°C and 5% CO2. Cell concentrations ranging from 2.5 to 5.0 × 10^4 cells/mL were used for the formation of cell monolayers. The concentrations of pure substances were kept in contact with the cells for 24 hours. After the incubation period, the cells were treated with the sulphorhodamine B reagent (Sigma-Aldrich, St. Louis, MO, USA) as previously described by Skehan et al., with some modifications.

The subject of series [4] is Trichophyton mentagrophytes. Kind of series: Broth microdilution MIC (CLSI M38-A2, modified). In kind it is cell-based. Conditions: 35°C, 7 days. Here is the method: (§2) To evaluate its antifungal activity, […] of dermatophytes were tested: two clinical strains of Trichophyton rubrum (Tr1 and Tr2), Trichophyton rubrum ATCC MYA 3108, two clinical strains of Trichophyton mentagrophytes (Tm1 and Tm2), and Trichophyton mentagrophytes ATCC 40131 (Tm3). The microorganisms were obtained from the collection of the Clinical Mycology Laboratory of the Department of Clinical Analyses at the School of Pharmaceutical Sciences of Universidade Estadual Paulista (UNESP). The strains were cultivated on Sabouraud dextrose agar (Difco, BD Biosciences) and incubated at 28°C for 7-15 days. For all experiments, the strains were cultivated on Potato Dextrose Agar (Difco, BD Biosciences) and incubated at 28°C as described above or until sporulation. The dilution of the synthetic compounds was performed with DMSO (Synth, Diadema, Sao Paulo, Brazil) as described by Scorzoni et al.. […] The antifungal drugs were diluted according to the CLSI […]-A2 document. Stock solutions of Fluconazole (Sigma-Aldrich, St. Louis, MO, USA) were prepared, considering its power. Serial twofold dilutions were prepared according to the recommendations of Zhang and collaborators, with some modifications. The antifungal activity tests were performed using the broth microdilution method as described in […]-A2, a document produced by the Clinical and Laboratory Standards Institute (CLSI, 2008), with modifications. The medium used was RPMI 1640 with L-glutamine (Sigma-Aldrich, St. Louis, MO, USA) buffered to pH 7.0 with 0.165 M morpholinepropanesulfonic acid (MOPS) (Sigma-Aldrich, St. Louis, MO, USA), supplemented with 2% glucose. […] The suspension of conidia was then transferred to small sterile test tubes where they remained for 40 minutes to separate the microconidia, which were lighter and therefore present in the supernatant. […] These suspensions were diluted in RPMI 1640 (Sigma-Aldrich, St. […] Positive (100 μL of RPMI medium with 100 μL of inoculum) and negative (200 μL of RPMI) controls were included in all experiments. The plates were incubated with agitation at 35°C for 7 days. The MIC reading was performed by spectrophotometry at 490 nm.

For series [5], the system named is Trichophyton rubrum. Kind of series: Broth microdilution MIC (CLSI M38-A2, modified). In kind it is cell-based. Conditions: 35°C, 7 days. Here is the method: as §2
For series [6], the system named is Trichophyton mentagrophytes. Kind of series: Minimum fungicide concentration (MFC). Format: cell-based. Here is the method:
(§3) A qualitative analysis of the fungal viability was performed by transferring a portion of the wells to a plate with Sabouraud (Difco, BD Biosciences) medium and incubating it at 35°C for the time determined for each fungal agent. […] A visual reading was performed to confirm the death or growth inhibition provided by fluconazole and the sixteen semisynthetic substances derived from protocatechuic acid.

For series [7], the system named is Trichophyton rubrum. Put plainly: Minimum fungicide concentration (MFC). In kind it is cell-based. Here is the method: as §3
The next series concerns Saccharomyces cerevisiae. On the set-up: method as in PMID 14592492. As to conditions: cited from earlier work.
The mark [8] stands for this setting: Tm3, T. mentagrophytes ATCC 40131.
The mark [9] stands for this setting: Tr1, T. rubrum clinical isolate.
Where [10] appears, read: Tr2, T. rubrum clinical isolate.

Values after ≈ are worked out from the molar mass of the structure shown.

As to `CCCCCCCCOC(=O)c1ccc(O)c(O)c1` [Protocatechuate octyl, octyl protocatechuate], the FIC index is 0.72 in series [1] and 1.0 in the series on Trichophyton rubrum [2]. Besides, the “MIC of the protocatechuate, substances combined” value in series [1] was 0.03 µg/mL; in the series on Trichophyton rubrum [2] it was 0.06 µg/mL. Also, the “association type (in words)” value (in series [1]; in the series with Trichophyton rubrum [2]) was “additive” in each case. For the same molecule, the “MIC, substances alone” value in series [1] (Tm1) stood at 1.9 µg/mL; in series [1] (Tm3 (ATCC 40131)) it was 3.9 µg/mL; in the series on Trichophyton rubrum [2] (Tr1, checkerboard, 168 hours) it was 1.9 µg/mL. Also, the “reduction in the MIC of the protocatechuate” value in the series with Trichophyton rubrum [2] was 31.66 times. Further, in series [3], the “Cytotoxicity IC50” value was 54.0 µg/mL. In addition, the minimum inhibitory concentration (MIC) in series [4] (Tm1, clinical isolate) turned out to be 1.95 µg/mL (≈ 7.32 µM); in series [4] (Tm2, clinical isolate) it was 1.95 µg/mL (≈ 7.32 µM); in series [4] (setting [8]), 3.9 µg/mL (≈ 14.6 µM); with Trichophyton rubrum [5] (setting [9]), 1.95 µg/mL (≈ 7.32 µM); against Trichophyton rubrum [5] (setting [10]), 7.8 µg/mL (≈ 29.3 µM); in the series on Trichophyton rubrum [5] (Tr3, T. rubrum ATCC MYA 3108), 0.97 µg/mL (≈ 3.64 µM). The minimum fungicidal concentration (MFC) in series [6] (Tm1, clinical isolate) worked out at 3.90 µg/mL (≈ 14.6 µM); in series [6] (Tm2, clinical isolate) it was 1.95 µg/mL (≈ 7.32 µM); in series [6] (setting [8]) it was 3.9 µg/mL (≈ 14.6 µM); with Trichophyton rubrum [7] (setting [9]) it was 1.95 µg/mL (≈ 7.32 µM); in the series on Trichophyton rubrum [7] (setting [10]), 7.8 µg/mL (≈ 29.3 µM); in the series on Trichophyton rubrum [7] (Tr3, T. rubrum ATCC MYA 3108) it was 1.95 µg/mL (≈ 7.32 µM). In addition, the fungicidal activity result with Saccharomyces cerevisiae was “fungicidal activity”.
